# Measurements from patent US10648917B2, “Luminescent compositions and applications thereof” (THE PENN STATE RESEARCH FOUNDATION, priority 2015, dated 2020).
# Assay: Halide fluorescence quenching (Stern-Volmer)
# Format: physicochemical
# Experimental: Absorbance Spectra were recorded on Tecan Infinite M200 Pro UV-vis spectroscopy, and fluorescence spectra were recorded on Horiba FluoroMax-4 fluorospectroscopy at concentrations below 0.1 O.D. unless otherwise indicated. Quantum Yields were measured on the Quantum φ Integrating Sphere accessory to the FluoroMax-4, while lifetime measurements were determined through the Time-Correlation Single Photon Counting (TCSPC) accessory to the FluroMax-4. TCSPC was utilized in conjunction with NanoLED pulsed diode light source with peak excitation wavelength at 352 nm and at 10,000 counts peak preset. Emission was collected at the fluorescence λmax, unless otherwise indicated. For all pH-dependence experiments, sample pH was adjusted with sulfuric acid or sodium hydroxide. For all chloride-dependent quenching experiments, magnesium chloride hexahydrate (Sigma Aldrich) was used.
# When a fluorophore of [F] absorbs light energy, excitation raises a sub-population of [F] to the excited state, [F*], which then rapidly lose energy along radiative relaxation (kr) or non-radiative relaxation (knr) according to equation 7. If a quencher forms a complex with the excited fluorophore, an extra non-radiative component, kq, is added to equation 7 to account for the additional relaxation pathway that is a function of quencher concentration and its association constant.
# [formula] Thus the quenching of fluorescence can be quantitatively analyzed by comparing the affected lifetimes. The Stern-Volmer (SV) relationship is used to determine kq, the bimolecular quenching rate constant for the diffusion coefficients of the fluorophore and quencher, by deriving a plot of τ0/τ versus [Q]:
# [formula] Thus the linear slope of the SV plot, KSV, measures the efficiency of the quencher. Since sulfuric acid was used to study proton-induced quenching, the pH value was a better indicator of [H^+] due to incomplete dissociation of sulfuric acid at high concentrations. In the case of multiple quenchers, as will be discussed in this paper, equation 7 must include additional kq terms that result in modified form of equation 12 below:
# [formula] If the two quenchers are act independently, the quencher of known quenching rate and concentration can be combined into the Y-intercept term in order to determine the quenching rate of the second, unknown quencher. […]
# To translate halide quenching into quantitative sensing applications, a modified Stern-Volmer equation (Equation 14) was used to linearize the effects of two quenchers, protons and the halide being studied, on the fluorescence of CA-Cysteine. […]
# Since the measured sample fluorescence is quenched by both protons and halides, the unquenched fluorescence, Io, was defined as the fluorescence of the neutral state CA-Cysteine in the absence of additional proton or halide quenchers. As mentioned above, the effects of protolytic equilibria stabilize around pH 2.2, where CA-Cysteine undergoes 99% conversion from the dianion state and is marked by constant fluorescence intensities (FIG. 13). […] Thus we chose the fluorescence intensity at pH 2.2 (in the absence of halides) as the unquenched reference signal, Io. IH,Cl in equation 23 is the sample fluorescence at the pH and halide concentration indicated. […]
structure (smiles),measurement,setting,value
O=C(O)c1cc2n(c(=O)c1)C(C(=O)O)CS2 (stereo not shown) [CA-Cys],fluorescence quenching by magnesium sulfate and sodium sulfate,,did not quench fluorescence under any conditions
same,fluorescence quenching by bromide and iodide,compared with chloride,quenched by bromide and iodide at even greater affinities
same,fluorescence quenching by magnesium chloride,pH 8.2,no significant quenching
same,fluorescence quenching by magnesium chloride,strongly acidic conditions (pH 2.4),quenched
